According to patent US20130165520A1, “Hybrid Molecule Having Mixed Retinoic Acid Receptor Agonism and Histone Deacetylase Inhibitory Properties” (priority 2010, published 2013):

How the values were obtained:
NCI-H322M [1] = settings: NCI-H322M (Non-Small cell lung cancer); 48 h
SF-295 = test: cells; settings: Homo sapiens, SF-295, 48 h
UACC-257 [2] = test: cells; settings: Homo sapiens, UACC-257, 48 h
SN12C = SN12C (Renal); 48 h
ACHN = test: cells; settings: Homo sapiens, 48 h
RXF393 = test: cells; settings: Homo sapiens, RXF 393, 48 h
NCI-H23 [3] = test: cells; settings: Homo sapiens, NCI-H23, 48 h
[4] = tested on: RAR target genes in MCF-7 cell line; test: RT-qPCR analysis of RAR target genes; assay type: cell-based
Text: The agonist activity of 3 through its effects on RAR target genes was subsequently analyzed (FIG. 3).

UO-31 = test: cells; settings: Homo sapiens, UO-31, 48 h
M14 [5] = settings: M14 (Melanoma); 48 h
HOP-92 = HOP-92 (Non-Small cell lung cancer); 48 h
SF-539 = test: cells; settings: Homo sapiens, SF-539, 48 h
NCI/ADR-RES = test: cells; settings: Homo sapiens, 48 h
NCI-H226 = NCI-H226 (Non-Small cell lung cancer); 48 h
[6] = tested on: non-tumorogenic immortalized mammary 184b5 cells; test: Cell growth measurement
PC-3 = PC-3 (Prostate); 48 h
RPMI-8226 = RPMI-8226 (Leukemia); 48 h
NCI-H23 [7] = settings: NCI-H23 (Non-Small cell lung cancer); 48 h
CCRF-CEM = CCRF-CEM (Leukemia); 48 h
OVCAR-4 = settings: 48 h
NCI-H522 = NCI-H522 (Non-Small cell lung cancer); 48 h
M14 [8] = test: cells; settings: Homo sapiens, M14, 48 h
UACC-257 [9] = settings: UACC-257 (Melanoma); 48 h
OVCAR-8 = settings: 48 h
HL-60(TB) = test: cells; settings: Homo sapiens, HL-60, 48 h
SF-268 = test: cells; settings: Homo sapiens, SF-268, 48 h
LOX IMVI = LOX IMVI (Melanoma); 48 h
A498 [10] = settings: A498 (Renal); 48 h
KM12 = test: cells; settings: Homo sapiens, KM12, 48 h
TK-10 = TK-10 (Renal); 48 h
HCT-15 = HCT-15 (Colon); 48 h
SK-OV-3 = settings: 48 h
UACC-62 = UACC-62 (Melanoma); 48 h
786-0 = test: cells; settings: Homo sapiens, 786-0, 48 h
NCI-H322M [11] = test: cells; settings: Homo sapiens, 48 h
A498 [12] = test: cells; settings: Homo sapiens, A498, 48 h
SK-MEL-28 = SK-MEL-28 (Melanoma); 48 h
SNB-19 = SNB-19 (CNS); 48 h
SK-MEL-2 = SK-MEL-2 (Melanoma); 48 h

For `CC1(C)CCC(C)(C)c2cc(-c3ccc4cc(C(=O)NO)ccc4c3)ccc21` [hybrid 3], the TGI (NCI-H322M [1]) was 3.5 µM, the GI50 (SF-295) was 385 nM and the CC50 (SF-295; read-out: LC50) was 6.11 µM. It also gave a GI50 (UACC-257 [2]) of 1980 nM, a CC50 (UACC-257 [2]; read-out: LC50) of 29.7 µM and a TGI (SN12C) of 2.37 µM. It also gave a GI50 (ACHN) of 393 nM, a CC50 (ACHN; read-out: LC50) of 5.09 µM and a GI50 (RXF393) of 1260 nM. It also gave a CC50 (RXF393; read-out: LC50) of 6.27 µM, a GI50 (NCI-H23 [3]) of 996 nM and a CC50 (NCI-H23 [3]; read-out: LC50) of 5.9 µM. The “induction of RAR target genes (RT-qPCR)” value [4] was “clear induction of RARB2 and DHRS3”, the GI50 (UO-31) was 404 nM and the CC50 (UO-31; read-out: LC50) was 4.53 µM. The TGI (M14 [5]) was 2.49 µM, the TGI (HOP-92) was 6.35 µM and the GI50 (SF-539) was 699 nM. It also gave a CC50 (SF-539; read-out: LC50) of 30.9 µM, a GI50 (NCI/ADR-RES) of 502 nM and a CC50 (NCI/ADR-RES; read-out: LC50) of 5.34 µM. For the same molecule, the TGI (NCI-H226) was 4.19 µM, the “effect on growth of non-tumorogenic cells” value [6] was “only minimal effects” and the TGI (PC-3) was 4.25 µM. The TGI (RPMI-8226) was 4.39 µM, the TGI (NCI-H23 [7]) was 2.43 µM and the TGI (CCRF-CEM) was 1.95 µM. The TGI (OVCAR-4) was 5.82 µM, the TGI (NCI-H522) was 3.59 µM and the GI50 (M14 [8]) was 708 nM. It also gave a CC50 (M14 [8]; read-out: LC50) of 7.43 µM, a TGI (UACC-257 [9]) of 7.34 µM and a TGI (OVCAR-8) of 1.77 µM. For the same molecule, the GI50 (HL-60(TB)) was 353 nM, the CC50 (HL-60(TB); read-out: LC50) was 7.66 µM and the GI50 (SF-268) was 533 nM. For the same molecule, the CC50 (SF-268; read-out: LC50) was 5.05 µM, the TGI (LOX IMVI) was 1.36 µM and the TGI (A498 [10]) was 3.8 µM. The GI50 (KM12) was 616 nM, the CC50 (KM12; read-out: LC50) was 4.61 µM and the TGI (TK-10) was 4.97 µM. It also gave a TGI (HCT-15) of 2.03 µM, a TGI (SK-OV-3) of 11.7 µM and a TGI (UACC-62) of 1.86 µM. For the same molecule, the GI50 (786-0) was 1100 nM, the CC50 (786-0; read-out: LC50) was 5.12 µM and the GI50 (NCI-H322M [11]) was 446 nM. For the same molecule, the CC50 (NCI-H322M [11]; read-out: LC50) was 26.2 µM, the GI50 (A498 [12]) was 1660 nM and the CC50 (A498 [12]; read-out: LC50) was 8.71 µM. It also gave a TGI (SK-MEL-28) of 5.5 µM, a TGI (SNB-19) of 2.36 µM and a TGI (SK-MEL-2) of 6.31 µM.
